Patent US20250049033A1, “PESTICIDALLY ACTIVE PYRIDAZINONE COMPOUNDS” (SYNGENTA CROP PROTECTION AG, priority 2021, published 2025)

Legend:
Assay type in all cases: in vivo
Diabrotica balteata = assay: Activity against Diabrotica balteata (corn root worm), maize sprouts, L2 larvae; conditions: 96 h, application rate 200 ppm, 4 days after infestation, vs untreated, read-out: control in at least one of the two categories (mortality or growth inhibition)
Description: Example B2: Activity Against Diabrotica balteata (Corn Root Worm)
Maize sprouts placed onto an agar layer in 24-well microtiter plates were treated with aqueous test solutions prepared from 10′000 ppm DMSO stock solutions by spraying. After drying, the plates were infested with L2 larvae (6 to 10 per well). The samples were assessed for mortality and growth inhibition in comparison to untreated samples 4 days after infestation.

Euschistus heros = assay: Activity against Euschistus heros (neotropical brown stink bug), soybean leaves, N2 nymphs; conditions: 120 h, application rate 200 ppm, 5 days after infestation, vs untreated, read-out: effect in at least one of the two categories (mortality or growth inhibition)
Description: Example B3: Activity Against Euschistus heros (Neotropical Brown Stink Bug)
Soybean leaves on agar in 24-well microtiter plates were sprayed with aqueous test solutions prepared from 10′000 ppm DMSO stock solutions. After drying the leaves were infested with N2 nymphs. The samples were assessed for mortality and growth inhibition in comparison to untreated samples 5 days after infestation.

Myzus persicae [1] = assay: Activity against Myzus persicae (green peach aphid), intrinsic activity; conditions: 120 h, test rate 12 ppm, 5 days after infestation, sucrose solution through Parafilm
Source text: Example B6: Activity Against Myzus persicae (Green Peach Aphid). Intrinsic Activity
Test compounds prepared from 10′000 ppm DMSO stock solutions were applied by pipette into 24-well microtiter plates and mixed with sucrose solution. The plates were closed with a stretched Parafilm. A plastic stencil with 24 holes was placed onto the plate and infested pea seedlings were placed directly on the Parafilm. The infested plate was closed with a gel blotting paper and another plastic stencil and then turned upside down. The samples were assessed for mortality 5 days after infestation.

Spodoptera littoralis = assay: Activity against Spodoptera littoralis (Egyptian cotton leaf worm), cotton leaf discs, L1 larvae; conditions: foliar, 72 h, application rate 200 ppm, 3 days after infestation, vs untreated, read-out: control in at least one of the three categories (mortality, anti-feedant effect, or growth inhibition)
Description: Example B8: Activity Against Spodoptera littoralis (Egyptian Cotton Leaf Worm)
Cotton leaf discs were placed onto agar in 24-well microtiter plates and sprayed with aqueous test solutions prepared from 10′000 ppm DMSO stock solutions. After drying the leaf discs were infested with five L1 larvae. The samples were assessed for mortality, anti-feeding effect, and growth inhibition in comparison to untreated samples 3 days after infestation. Control of Spodoptera littoralis by a test sample is given when at least one of the categories mortality, anti-feedant effect, and growth inhibition is higher than the untreated sample.

Chilo suppressalis = assay: Activity against Chilo suppressalis (striped rice stemborer), artificial diet, L2 larvae; conditions: 144 h, application rate 200 ppm, 6 days after infestation, vs untreated, read-out: control in at least one of the three categories (mortality, anti-feedant effect, or growth inhibition)
Description: Example B1: Activity Against Chilo suppressalis (Striped Rice Stemborer)
24-well microtiter plates with artificial diet were treated with aqueous test solutions prepared from 10′000 ppm DMSO stock solutions by pipetting. After drying, the plates were infested with L2 larvae (6-8 per well). The samples were assessed for mortality, anti-feeding effect, and growth inhibition in comparison to untreated samples 6 days after infestation. Control of Chilo suppressalis by a test sample is given when at least one of the categories mortality, anti-feedant effect, and growth inhibition is higher than the untreated sample.

Plutella xylostella = assay: Activity against Plutella xylostella (diamond back moth), artificial diet, eggs; conditions: 192 h, application rate 200 ppm, 8 days after infestation, vs untreated, read-out: control in at least one of the two categories (mortality or growth inhibition)
Description: Example B7: Activity Against Plutella xylostella (Diamond Back Moth)
24-well microtiter plates with artificial diet were treated with aqueous test solutions prepared from 10′000 ppm DMSO stock solutions by pipetting. After drying, Plutella eggs were pipetted through a plastic stencil onto a gel blotting paper and the plate was closed with it. The samples were assessed for mortality and growth inhibition in comparison to untreated samples 8 days after infestation. The following compounds gave an effect of at least 80% control in at least one of the two categories (mortality or growth inhibition) at an application rate of 200 ppm: P1, P2, P3, P4, P6, P7, P8, P9, P10, P11, P12, P13, P14, P15, P16, P17, P18, P19, P20, P21, P22, P23, P24, P25, P26, P27.

Myzus persicae [2] = assay: Activity against Myzus persicae (green peach aphid), feeding/contact activity; conditions: foliar, 144 h, application rate 200 ppm, 6 days after infestation, sunflower leaf discs, mixed ages
Description: Example B5: Activity Against Myzus persicae (Green Peach Aphid). Feeding/Contact Activity
Sunflower leaf discs were placed onto agar in a 24-well microtiter plate and sprayed with aqueous test solutions prepared from 10′000 ppm DMSO stock solutions. After drying, the leaf discs were infested with an aphid population of mixed ages. The samples were assessed for mortality 6 days after infestation.

CCn1nc(-n2ncnc2[C@H](C)N(C)c2ncnc3c(C(F)(F)F)cc(Cl)cc23)ccc1=O [P15, 6-[5-[(1S)-1-[[6-chloro-8-(trifluoro-methyl)quinazolin-4-yl]-methyl-amino]ethyl]-1,2,4-triazol-1-yl]-2-ethyl-pyrid-azin-3-one]
≥ 80%: percent control (mortality or growth inhibition) at 200 ppm (Diabrotica balteata) | percent effect (mortality or growth inhibition) at 200 ppm (Euschistus heros) | mortality at 12 ppm (Myzus persicae [1]) | percent control (mortality, anti-feedant effect or growth inhibition) at 200 ppm (Spodoptera littoralis) | percent control (mortality, anti-feedant effect or growth inhibition) at 200 ppm (Chilo suppressalis) | percent control (mortality or growth inhibition) at 200 ppm (Plutella xylostella) | mortality at 200 ppm (Myzus persicae [2])

C[C@H](Nc1nc(Cl)nc2c(Cl)cc(C(F)(F)F)cc12)c1ncnn1-c1ccc(=O)n(C)n1 [P4, 6-[5-[(1S)-1-[[2,8-dichloro-6-(trifluoromethyl)quinazolin-4-yl]amino]ethyl]-1,2,4-triazol-1-yl]-2-methyl-pyridazin-3-one]
≥ 80%: percent control (mortality or growth inhibition) at 200 ppm (Diabrotica balteata) | percent control (mortality, anti-feedant effect or growth inhibition) at 200 ppm (Chilo suppressalis) | percent control (mortality or growth inhibition) at 200 ppm (Plutella xylostella) | mortality at 200 ppm (Myzus persicae [2])

C[C@@H](c1ncnn1C1=NN(C)C(=O)CC1)N(C)c1ncnc2c(I)cc(Cl)cc12 [P26, 6-[5-[(1S)-1-[(6-chloro-8-iodo-quinazolin-4-yl)-methyl-amino]ethyl]-1,2,4-triazol-1-yl]-2-methyl-4,5-dihydropyridazin-3-one]
≥ 80%: percent control (mortality or growth inhibition) at 200 ppm (Diabrotica balteata) | percent effect (mortality or growth inhibition) at 200 ppm (Euschistus heros) | mortality at 12 ppm (Myzus persicae [1]) | percent control (mortality, anti-feedant effect or growth inhibition) at 200 ppm (Spodoptera littoralis) | percent control (mortality, anti-feedant effect or growth inhibition) at 200 ppm (Chilo suppressalis) | percent control (mortality or growth inhibition) at 200 ppm (Plutella xylostella)

C[C@@H](c1ncnn1-c1ccc(=O)n(C)n1)N(C)c1ncnc2c(Br)cc(Br)cc12 [P14, 6-[5-[(1S)-1-[(6,8-dibromoquinazolin-4-yl)-methyl-amino]ethyl]-1,2,4-triazol-1-yl]-2-methyl-pyridazin-3-one]
≥ 80%: percent control (mortality or growth inhibition) at 200 ppm (Diabrotica balteata) | percent effect (mortality or growth inhibition) at 200 ppm (Euschistus heros) | mortality at 12 ppm (Myzus persicae [1]) | percent control (mortality, anti-feedant effect or growth inhibition) at 200 ppm (Spodoptera littoralis) | percent control (mortality or growth inhibition) at 200 ppm (Plutella xylostella) | mortality at 200 ppm (Myzus persicae [2])

C[C@H](Nc1ncnc2c(Br)cc(Br)cc12)c1ncnn1-c1ccc(=O)n(C)n1 [P18, 6-[5-[(1S)-1-[(6,8-dibromoquinazolin-4-yl)amino]ethyl]-1,2,4-triazol-1-yl]-2-methyl-pyridazin-3-one]
≥ 80%: percent control (mortality or growth inhibition) at 200 ppm (Plutella xylostella)

C[C@H](Nc1nc(=O)n(C)c2c(Cl)cc(C(F)(F)F)cc12)c1ncnn1-c1ccc(=O)n(C)n1 [P1, 8-chloro-1-methyl-4-[[(1S)-1-[2-(1-methyl-6-oxo-pyridazin-3-yl)-1,2,4-triazol-3-yl]ethyl]amino]-6-(trifluoromethyl)quinazolin-2-one]
≥ 80%: percent effect (mortality or growth inhibition) at 200 ppm (Euschistus heros) | percent control (mortality, anti-feedant effect or growth inhibition) at 200 ppm (Chilo suppressalis) | percent control (mortality or growth inhibition) at 200 ppm (Plutella xylostella)

C[C@H](Nc1ncnc2c(I)cc(Cl)cc12)c1ncnn1-c1ccc(=O)n(C)n1 [P11, 6-[5-[(1S)-1-[(6-chloro-8-iodo-quinazolin-4-yl)-amino]ethyl]-1,2,4-triazol-1-yl]-2-methyl-pyridazin-3-one]
≥ 80%: percent effect (mortality or growth inhibition) at 200 ppm (Euschistus heros) | mortality at 12 ppm (Myzus persicae [1]) | percent control (mortality, anti-feedant effect or growth inhibition) at 200 ppm (Spodoptera littoralis) | percent control (mortality, anti-feedant effect or growth inhibition) at 200 ppm (Chilo suppressalis) | percent control (mortality or growth inhibition) at 200 ppm (Plutella xylostella)

C[C@H](Nc1ncnc2c(I)cc(Cl)cc12)c1ncnn1C1=NN(C)C(=O)CC1 [P25, 6-[5-[(1S)-1-[(6-chloro-8-iodo-quinazolin-4-yl)amino]ethyl]-1,2,4-triazol-1-yl]-2-methyl-4,5-dihydropyridazin-3-one]
≥ 80%: percent control (mortality or growth inhibition) at 200 ppm (Diabrotica balteata) | percent effect (mortality or growth inhibition) at 200 ppm (Euschistus heros) | mortality at 12 ppm (Myzus persicae [1]) | percent control (mortality, anti-feedant effect or growth inhibition) at 200 ppm (Spodoptera littoralis) | percent control (mortality, anti-feedant effect or growth inhibition) at 200 ppm (Chilo suppressalis) | percent control (mortality or growth inhibition) at 200 ppm (Plutella xylostella)

C[C@@H](c1ncnn1-c1ccc(=O)n(C)n1)N(C)c1ncnc2c(Cl)cc(C(F)(F)F)cc12 [P23, 6-[5-[(1S)-1-[[8-chloro-6-(trifluoro-methyl)quinazolin-4-yl]-methyl-amino]ethyl]-1,2,4-triazol-1-yl]-2-methyl-pyr-idazin-3-one]
≥ 80%: percent control (mortality or growth inhibition) at 200 ppm (Diabrotica balteata) | percent effect (mortality or growth inhibition) at 200 ppm (Euschistus heros) | mortality at 12 ppm (Myzus persicae [1]) | percent control (mortality, anti-feedant effect or growth inhibition) at 200 ppm (Spodoptera littoralis) | percent control (mortality, anti-feedant effect or growth inhibition) at 200 ppm (Chilo suppressalis) | percent control (mortality or growth inhibition) at 200 ppm (Plutella xylostella)

C[C@H](Nc1ncnc2c(C(F)(F)F)cc(Cl)cc12)c1ncnn1-c1ccc(=O)n(C)n1 [P2, 6-[5-[(1S)-1-[[6-chloro-8-(trifluoromethyl)quinazolin-4-yl]amino]ethyl]-1,2,4-triazol-1-yl]-2-methyl-pyridazin-3-one]
≥ 80%: percent control (mortality or growth inhibition) at 200 ppm (Diabrotica balteata) | percent effect (mortality or growth inhibition) at 200 ppm (Euschistus heros) | percent control (mortality, anti-feedant effect or growth inhibition) at 200 ppm (Spodoptera littoralis) | percent control (mortality, anti-feedant effect or growth inhibition) at 200 ppm (Chilo suppressalis) | percent control (mortality or growth inhibition) at 200 ppm (Plutella xylostella) | mortality at 200 ppm (Myzus persicae [2])

C[C@H](Nc1ncnc2c(Cl)cc(C(F)(F)F)cc12)c1ncnn1-c1ccc(=O)n(C)n1 [P16, 6-[5-[(1S)-1-[[8-chloro-6-(trifluoro-methyl)quinazolin-4-yl]amino]ethyl]-1,2,4-triazol-1-yl]-2-methyl-pyrid-azin-3-one]
≥ 80%: percent control (mortality or growth inhibition) at 200 ppm (Diabrotica balteata) | percent effect (mortality or growth inhibition) at 200 ppm (Euschistus heros) | mortality at 12 ppm (Myzus persicae [1]) | percent control (mortality, anti-feedant effect or growth inhibition) at 200 ppm (Spodoptera littoralis) | percent control (mortality, anti-feedant effect or growth inhibition) at 200 ppm (Chilo suppressalis) | percent control (mortality or growth inhibition) at 200 ppm (Plutella xylostella)

C[C@H](Nc1ncnc2c(Cl)cc(I)cc12)c1ncnn1-c1ccc(=O)n(C)n1 [P20, 6-[5-[(1S)-1-[(8-chloro-6-iodo-quinazolin-4-yl)-amino]ethyl]-1,2,4-triazol-1-yl]-2-methyl-pyridazin-3-one]
≥ 80%: percent control (mortality or growth inhibition) at 200 ppm (Plutella xylostella) | mortality at 200 ppm (Myzus persicae [2])
